Experimental data taken from patent US12091411B2, “IRAK degraders and uses thereof” (Kymera Therapeutics, Inc., priority 2022, dated 2024).
Where two headings read alike, the source gives them in different places.

Molecular target: T1, IRAK4 (Homo sapiens, UniProt Q9NWZ3)
T1 construct: Degradation of IRAK4 in OCI-LY10 was quantitatively measured using Meso Scale Discovery technology; endogenous in cells; host or cells: OCI-LY10
T1 sequence (Q9NWZ3 1-460): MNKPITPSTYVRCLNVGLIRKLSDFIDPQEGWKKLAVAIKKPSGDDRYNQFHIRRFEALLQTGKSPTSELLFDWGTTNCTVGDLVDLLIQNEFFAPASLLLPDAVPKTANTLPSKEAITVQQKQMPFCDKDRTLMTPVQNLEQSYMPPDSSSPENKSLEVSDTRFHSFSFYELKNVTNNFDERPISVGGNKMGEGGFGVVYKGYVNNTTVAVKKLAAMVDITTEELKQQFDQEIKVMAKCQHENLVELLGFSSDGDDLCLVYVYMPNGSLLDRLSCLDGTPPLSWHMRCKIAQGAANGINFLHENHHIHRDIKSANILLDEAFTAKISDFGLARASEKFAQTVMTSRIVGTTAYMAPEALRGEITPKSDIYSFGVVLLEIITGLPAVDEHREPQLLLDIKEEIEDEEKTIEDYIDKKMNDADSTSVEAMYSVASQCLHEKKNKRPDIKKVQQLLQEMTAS
Assay: IRAK4 MSD Degradation in OCI-LY10
Assay type: cell-based
Conditions: OCI-LY10 cells, MSD
Outline: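 OCI-LY10 cells exposed to 8-point 1:3 compound series (top 1 to 10 μM) for 4 to 24 h at 37 °C, 5% CO2. Lysate IRAK4 quantified by MSD sandwich immunoassay. DC50 from three-parameter logistic fit, binned A (<0.01 μM) to D (>0.2 μM or not tested).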

[1] = 4 hrs incubation, read-out: IRAK4 degradation in OCI-LY10 at 4 hrs: DC50
[2] = 24 hrs incubation, read-out: IRAK4 degradation in OCI-LY10 at 24 hrs: DC50

| DC50 [1] [nM] | DC50 [2] [nM] | SMILES |
| --- | --- | --- |
| < 10 | > 200 | O=C1CCN(c2cncc3c2cccc3[C@H]2C[C@@H](CN3CCN(C[C@H]4CC[C@H](n5cc(NC(=O)c6cnn7ccc(N8C[C@H]9C[C@@H]8CO9)nc67)c(C(F)F)n5)CC4)CC3)C2)C(=O)N1 [I-6] |
| > 200 | > 200 | CN(C[C@H]1CC[C@H](n2cc(NC(=O)c3cnn4cccnc34)c(C(F)F)n2)CC1)C1C(F)CN(c2cccc3c2n(C)c(=O)n3C2CCC(=O)NC2=O)CC1F (stereo partly shown) [I-483] |
| > 200 | < 10 | Cn1c(=O)n(C2CCC(=O)NC2=O)c2cccc(C3CCN(C[C@H]4CC[C@H](n5cc6cc(NC(=O)c7cccc(C(F)F)n7)ccc6n5)CC4)CC3(F)F)c21 (stereo partly shown) [I-613] |
| < 10 | > 200 | CCn1c(=O)n(C2CCC(=O)NC2=O)c2cccc(C#CCOC3CCN(C[C@H]4CC[C@H](n5cc(NC(=O)c6cnn7ccc(N8C[C@H]9C[C@@H]8CO9)nc67)c(C(F)F)n5)CC4)CC3)c21 (stereo partly shown) [I-70] |
| > 200 | > 200 | C[C@H]1CN(CCCc2cccc3c2n(C)c(=O)n3C2CCC(=O)NC2=O)CCN1C[C@H]1CC[C@H](n2cc(NC(=O)c3cnn4ccc(N5C[C@H]6C[C@@H]5CO6)nc34)c(C(F)F)n2)CC1 (stereo partly shown) [I-120] |
| > 200 | > 200 | CN(C[C@H]1CC[C@H](n2cc(NC(=O)c3cnn4ccc(N5CCOC6(CC6)C5)nc34)c(C(F)F)n2)CC1)C1CCN(c2cccc3c2n(C)c(=O)n3C2CCC(=O)NC2=O)CC1(F)F (stereo partly shown) [I-539] |
| > 200 | > 200 | Cn1c(=O)n(C2CCC(=O)NC2=O)c2cccc(CCCN3CCN(C[C@H]4CC[C@H](n5cc(NC(=O)c6cccc(C(F)(F)F)n6)c(C(F)F)n5)CC4)CC3)c21 (stereo partly shown) [I-213] |
| 10 to 100 | > 200 | Cn1c(=O)n(C2CCC(=O)NC2=O)c2cccc(C#CCOC3CCN(C[C@H]4CC[C@H](n5cc(NC(=O)c6cnn7ccc(N8C[C@H]9C[C@@H]8CO9)nc67)c(C(F)(F)F)n5)CC4)CC3)c21 (stereo partly shown) [I-166] |
| > 200 | 10 to 100 | CN(C[C@H]1CC[C@H](n2cc(NC(=O)c3cnn4ccc(N5CCCC5)nc34)c(C(F)F)n2)CC1)C1CCN(c2cccc3c2n(C)c(=O)n3C2CCC(=O)NC2=O)CC1(F)F (stereo partly shown) [I-512] |
| > 200 | > 200 | C[C@H]1CN(C[C@H]2CC[C@H](n3cc(NC(=O)c4cnn5ccc(N6C[C@H]7C[C@@H]6CO7)nc45)c(C(F)F)n3)CC2)CC[C@@H]1OCC#Cc1cccc2c1n(C)c(=O)n2C1CCC(=O)N(C)C1=O (stereo partly shown) [I-47] |
| < 10 | > 200 | C[C@H]1C[C@@H](OCC#Cc2cccc3c2n(C)c(=O)n3C2CCC(=O)NC2=O)CCN1C[C@H]1CC[C@H](n2cc(NC(=O)c3cnn4ccc(N5C[C@H]6C[C@@H]5CO6)nc34)c(C(F)F)n2)CC1 (stereo partly shown) [I-29] |
| > 200 | < 10 | Cn1c(=O)n(C2CCC(=O)NC2=O)c2cccc(C3CCN(C[C@H]4CC[C@H](n5cc6cc(NC(=O)c7cccc(C#N)n7)c(C(C)(C)O)cc6n5)CC4)CC3(F)F)c21 (stereo partly shown) [I-618] |
| > 200 | > 200 | Cn1c(=O)n(C2CCC(=O)NC2=O)c2cccc(C#CCOc3ccc(CN4CCC(n5cc(NC(=O)c6cnn7ccc(N8CC9C[C@@H]8CO9)nc67)c(C(F)F)n5)CC4)cc3)c21 (stereo partly shown) [I-371] |
| > 200 |  | CN(C[C@H]1CC[C@H](n2cc(NC(=O)c3cnn4cccnc34)c(C(F)F)n2)CC1)C1CCN(c2ccc3c(c2)n(C)c(=O)n3C2CCC(=O)NC2=O)CC1(F)F (stereo partly shown) [I-570] |
| > 200 | > 200 | COc1cc2nn([C@H]3CC[C@H](CN4CCC5(CC4)CCN(c4cccc6c(C7CCC(=O)NC7=O)cncc46)CC5)CC3)cc2cc1NC(=O)c1cncc(C#N)c1 (stereo partly shown) [I-253] |
| > 200 | > 200 | CN(C)c1cnc2c(C(=O)Nc3cn([C@H]4CC[C@H](CN5CCN(c6cccc7c6n(C)c(=O)n7C6CCC(=O)NC6=O)CC5)CC4)nc3F)cnn2c1 (stereo partly shown) [I-215] |
| > 200 | < 10 | Cn1c(=O)n(C2CCC(=O)NC2=O)c2cccc(N3CCN([C@@H]4CCN(C[C@H]5CC[C@H](n6cc(NC(=O)c7cnn8ccc(N9C[C@H]%10C[C@@H]9CO%10)nc78)c(C(F)F)n6)CC5)CC4(F)F)CC3)c21 (stereo partly shown) [I-720] |
| > 200 | > 200 | Cn1c(=O)n(C2CCC(=O)NC2=O)c2cccc(C#CCOC3CCN(C[C@H]4CC[C@H](n5cc(NC(=O)c6cnn7ccc(N8C[C@H]9C[C@@H]8CO9)nc67)c(F)n5)CC4)CC3)c21 (stereo partly shown) [I-280] |
| > 200 | > 200 | Cc1cccc(C(=O)Nc2ccc3nn([C@H]4CC[C@H](CN5CC[C@@H](c6cccc7c6n(C)c(=O)n7C6CCC(=O)NC6=O)[C@H](F)C5)CC4)cc3c2)n1 (stereo partly shown) [I-621] |

| DC50 [1] [nM] | DC50 [2] [nM] | SMILES |
| --- | --- | --- |
| > 200 | 10 to 100 | Cn1c(=O)n(C2CCC(=O)NC2=O)c2cccc(C#CCN3CCN(C[C@H]4CC[C@H](n5cc(NC(=O)c6cnn7ccc(N8C[C@H]9C[C@@H]8CO9)nc67)c(Cl)n5)CC4)CC3)c21 (relative stereo) [I-117] |
| > 200 | < 10 | C[C@@H]1CN(c2ccn3ncc(C(=O)Nc4cn([C@H]5CC[C@H](CN6CCN(CC#Cc7cccc8c7n(C)c(=O)n8C7CCC(=O)NC7=O)CC6)CC5)nc4C(F)F)c3n2)CCO1 (stereo partly shown) [I-406] |
| > 200 | > 200 | COc1cc2nn([C@H]3CC[C@H](CN4CCC5(CC4)CCN(c4ccc(N6CCC(=O)NC6=O)cc4)CC5)CC3)cc2cc1NC(=O)c1cncc(C#N)c1 [I-96] |
| > 200 | > 200 | COc1cc2nn([C@H]3CC[C@H](CN4CCC(c5ccc6c(N7CCC(=O)NC7=O)cncc6c5)C(F)(F)C4)CC3)cc2cc1NC(=O)c1cccc(C(F)(F)F)n1 (stereo partly shown) [I-471] |
| 10 to 100 | > 200 | Cn1c(=O)n(C2CCC(=O)NC2=O)c2cccc(C#CCN3CCN(C[C@H]4CC[C@H](n5cc(NC(=O)c6cnn7ccc(N8CC[C@@]9(CCOC9)C8)nc67)c(C(F)F)n5)CC4)CC3)c21 (stereo partly shown) [I-419] |
| > 200 | < 10 | Cn1c(=O)n(C2CCC(=O)NC2=O)c2cccc(N3CCN([C@@H]4CCN(C[C@H]5CC[C@H](n6cc(NC(=O)c7cnn8ccc(N9C[C@H]%10C[C@@H]9CO%10)nc78)c(C(F)F)n6)CC5)C[C@@H]4F)CC3)c21 (stereo partly shown) [I-679] |
| > 200 | < 10 | CN(C[C@H]1CC[C@H](n2cc(NC(=O)c3cnn4ccc(N5CCCC5)nc34)c(C(F)F)n2)CC1)C1CCN(c2cccc3c2n(C)c(=O)n3C2CCC(=O)NC2=O)CC1 (stereo partly shown) [I-278] |
| < 10 | > 200 | Cn1c(=O)n(C2CCC(=O)NC2=O)c2cccc(C#CCCOC3CCN(C[C@H]4CC[C@H](n5cc(NC(=O)c6cnn7ccc(N8C[C@H]9C[C@@H]8CO9)nc67)c(C(F)F)n5)CC4)CC3)c21 (stereo partly shown) [I-16] |
| > 200 | > 200 | Cn1c(=O)n(C2CCC(=O)NC2=O)c2cccc(C#CCN3CCN(C[C@H]4CC[C@H](n5cc(NC(=O)c6cnn7ccc(N8CC9(CCOC9)C8)nc67)c(C(F)F)n5)CC4)CC3)c21 (stereo partly shown) [I-317] |
| > 200 | < 10 | Cc1cc2nn([C@H]3CC[C@H](CN4CCC(c5cccc6c5n(C)c(=O)n6C5CCC(=O)NC5=O)C(F)C4)CC3)cc2cc1NC(=O)c1cccc(C(F)(F)F)n1 (stereo partly shown) [I-550] |
| > 200 | 10 to 100 | Cn1c(=O)n(C2CCC(=O)NC2=O)c2cccc(C#CCN3CCN(C[C@H]4CC[C@H](n5cc(NC(=O)c6cnn7ccc(N8CCCCCC8)nc67)c(C(F)F)n5)CC4)CC3)c21 (stereo partly shown) [I-283] |
| 10 to 100 | < 10 | C[C@H]1CN(C[C@H]2CC[C@H](n3cc(NC(=O)c4cnn5ccc(N6C[C@H]7C[C@@H]6CO7)nc45)c(C(F)F)n3)CC2)CC[C@@H]1OCC#Cc1cccc2c1n(C)c(=O)n2C1CCC(=O)NC1=O (stereo partly shown) [I-25] |
| > 200 | > 200 | Cn1c(=O)n(C2CCC(=O)NC2=O)c2cccc(C#CCN3CCN(C[C@H]4CC[C@H](n5cc(NC(=O)c6cnn7ccc(C8C[C@H]9C[C@@H]8CO9)nc67)c(C(F)F)n5)CC4)CC3)c21 (stereo partly shown) [I-105] |
| > 200 | > 200 | Cn1c(=O)n(C2CCC(=O)NC2=O)c2cccc(N3CC(CCC4(F)CN(C[C@H]5CC[C@H](n6cc(NC(=O)c7cnn8ccc(N9C[C@H]%10C[C@@H]9CO%10)nc78)c(C(F)F)n6)CC5)C4)C3)c21 (stereo partly shown) [I-785] |
| > 200 | 10 to 100 | Cn1c(=O)n(C2CCC(=O)NC2=O)c2cccc(C#CCN3CCN(C[C@H]4CC[C@H](n5cc(NC(=O)c6cnn7cccnc67)c(C(F)F)n5)CC4)CC3)c21 (stereo partly shown) [I-235] |
| 10 to 100 | > 200 | Cn1c(=O)n(C2CCC(=O)NC2=O)c2cccc(C#CCOC3CCN(C[C@H]4CC[C@H](n5cc(NC(=O)c6cnn7ccc(N8CC9(CCOCC9)C8)nc67)c(C(F)F)n5)CC4)CC3)c21 (stereo partly shown) [I-326] |
| > 200 | > 200 | C[C@@H]1CN(CCCc2cccc3c2n(C)c(=O)n3C2CCC(=O)NC2=O)CCN1C[C@H]1CC[C@H](n2cc(NC(=O)c3cnn4ccc(N5C[C@H]6C[C@@H]5CO6)nc34)c(C(F)F)n2)CC1 (stereo partly shown) [I-119] |
| > 200 | > 200 | CN1CCN(c2ccn3ncc(C(=O)Nc4cn([C@H]5CC[C@H](CN6CCN(CC#Cc7cccc8c7n(C)c(=O)n8C7CCC(=O)NC7=O)CC6)CC5)nc4C(F)F)c3n2)CC1C(F)(F)F (stereo partly shown) [I-412] |
